# Data: ChEMBL document CHEMBL5291721, “A preclinical secondary pharmacology resource illuminates target-adverse drug reaction associations of marketed drugs” (Nat Commun, 2023)
# Experiments:
# [1] = target: Histamine H2 receptor (Homo sapiens, UniProt P25021); assay type: functional, cell-based
# [2] = target: T1, 5-hydroxytryptamine receptor 2C (Homo sapiens, UniProt P28335)
# T1 sequence (P28335 whole entry): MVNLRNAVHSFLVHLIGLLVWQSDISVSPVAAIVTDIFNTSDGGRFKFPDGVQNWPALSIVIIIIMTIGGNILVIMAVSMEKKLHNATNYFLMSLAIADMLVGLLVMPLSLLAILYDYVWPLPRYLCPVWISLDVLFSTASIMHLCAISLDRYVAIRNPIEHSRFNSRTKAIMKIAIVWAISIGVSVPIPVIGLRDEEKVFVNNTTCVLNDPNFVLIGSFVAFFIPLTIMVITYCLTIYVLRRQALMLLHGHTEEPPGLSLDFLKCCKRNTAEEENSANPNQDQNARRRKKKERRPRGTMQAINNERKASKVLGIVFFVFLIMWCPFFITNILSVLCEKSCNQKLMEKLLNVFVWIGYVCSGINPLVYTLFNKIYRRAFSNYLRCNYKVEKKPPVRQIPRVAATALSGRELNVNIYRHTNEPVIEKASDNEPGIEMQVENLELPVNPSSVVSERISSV
# [3] = target: 5-hydroxytryptamine receptor 2B (Homo sapiens, UniProt P41595); assay type: functional, cell-based
# [4] = target: cGMP-inhibited 3',5'-cyclic phosphodiesterase 3A (Homo sapiens, UniProt Q14432); assay type: functional
# [5] = target: T2, B2 bradykinin receptor (Homo sapiens, UniProt P30411)
# T2 sequence (P30411 whole entry): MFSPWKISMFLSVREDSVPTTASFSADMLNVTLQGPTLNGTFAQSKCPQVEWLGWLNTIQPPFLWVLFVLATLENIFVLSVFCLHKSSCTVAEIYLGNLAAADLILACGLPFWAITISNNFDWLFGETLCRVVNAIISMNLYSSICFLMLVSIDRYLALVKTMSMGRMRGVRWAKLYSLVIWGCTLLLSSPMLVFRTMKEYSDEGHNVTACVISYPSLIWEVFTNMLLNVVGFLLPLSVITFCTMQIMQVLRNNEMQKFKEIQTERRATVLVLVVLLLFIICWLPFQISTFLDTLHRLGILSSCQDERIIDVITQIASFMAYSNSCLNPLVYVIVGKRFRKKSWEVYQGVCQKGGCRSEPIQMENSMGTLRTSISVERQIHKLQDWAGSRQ
# [6] = target: Beta-1 adrenergic receptor (Homo sapiens, UniProt P08588); assay type: functional
# [7] = target: T3, Alpha-1A adrenergic receptor (Homo sapiens, UniProt P35348); assay type: functional, cell-based
# T3 sequence (P35348 whole entry): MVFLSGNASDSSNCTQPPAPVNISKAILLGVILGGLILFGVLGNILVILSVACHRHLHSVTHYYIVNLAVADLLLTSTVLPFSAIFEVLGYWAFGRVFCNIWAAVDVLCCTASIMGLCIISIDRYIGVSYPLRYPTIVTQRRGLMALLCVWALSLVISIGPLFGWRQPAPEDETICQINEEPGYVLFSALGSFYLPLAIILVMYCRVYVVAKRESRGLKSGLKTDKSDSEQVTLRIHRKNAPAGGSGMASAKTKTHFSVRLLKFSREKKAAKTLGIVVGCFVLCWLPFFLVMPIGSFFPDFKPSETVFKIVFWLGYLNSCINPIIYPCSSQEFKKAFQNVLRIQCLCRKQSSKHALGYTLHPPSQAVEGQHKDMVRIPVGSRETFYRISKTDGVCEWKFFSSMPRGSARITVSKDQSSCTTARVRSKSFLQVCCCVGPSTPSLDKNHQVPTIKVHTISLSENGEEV
# [8] = target: T4, Adenosine receptor A1 (Homo sapiens, UniProt P30542)
# T4 sequence (P30542 whole entry): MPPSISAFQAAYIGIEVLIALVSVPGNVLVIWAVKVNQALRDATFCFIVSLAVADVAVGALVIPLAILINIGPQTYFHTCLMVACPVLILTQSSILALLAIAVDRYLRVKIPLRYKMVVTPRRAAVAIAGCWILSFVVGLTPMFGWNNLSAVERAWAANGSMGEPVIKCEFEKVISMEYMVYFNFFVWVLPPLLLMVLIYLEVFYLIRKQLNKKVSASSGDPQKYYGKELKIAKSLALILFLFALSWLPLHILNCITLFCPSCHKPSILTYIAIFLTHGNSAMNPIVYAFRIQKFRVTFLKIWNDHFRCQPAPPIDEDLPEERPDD
# [9] = target: T5, Equilibrative nucleoside transporter 1 (Homo sapiens, UniProt Q99808)
# T5 sequence (Q99808 whole entry): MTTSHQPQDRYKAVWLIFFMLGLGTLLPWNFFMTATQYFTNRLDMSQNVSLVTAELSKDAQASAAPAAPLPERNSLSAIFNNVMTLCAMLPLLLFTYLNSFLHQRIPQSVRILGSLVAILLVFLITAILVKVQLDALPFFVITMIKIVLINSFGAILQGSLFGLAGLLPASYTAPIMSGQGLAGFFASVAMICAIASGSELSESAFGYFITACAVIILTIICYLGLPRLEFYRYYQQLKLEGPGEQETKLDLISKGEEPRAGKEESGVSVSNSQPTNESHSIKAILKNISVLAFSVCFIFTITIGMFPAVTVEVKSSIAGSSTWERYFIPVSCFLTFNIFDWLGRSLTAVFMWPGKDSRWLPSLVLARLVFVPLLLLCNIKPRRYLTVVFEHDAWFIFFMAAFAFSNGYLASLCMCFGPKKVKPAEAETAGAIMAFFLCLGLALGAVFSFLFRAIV
# [10] = target: T6, Alpha-2A adrenergic receptor (Homo sapiens, UniProt P08913); assay type: functional, cell-based
# T6 sequence (P08913 whole entry): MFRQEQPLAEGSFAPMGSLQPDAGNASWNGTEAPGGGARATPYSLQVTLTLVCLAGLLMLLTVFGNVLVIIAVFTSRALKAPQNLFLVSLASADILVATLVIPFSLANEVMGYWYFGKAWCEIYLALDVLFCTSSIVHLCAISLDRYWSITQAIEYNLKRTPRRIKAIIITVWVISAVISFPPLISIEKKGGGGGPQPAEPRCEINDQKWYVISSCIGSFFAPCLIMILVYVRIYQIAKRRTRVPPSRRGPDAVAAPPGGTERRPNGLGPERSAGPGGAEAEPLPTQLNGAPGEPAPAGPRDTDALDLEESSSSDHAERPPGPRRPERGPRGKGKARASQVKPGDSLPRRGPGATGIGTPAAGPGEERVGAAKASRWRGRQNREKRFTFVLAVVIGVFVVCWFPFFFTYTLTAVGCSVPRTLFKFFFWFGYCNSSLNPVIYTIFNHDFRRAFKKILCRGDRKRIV
# [11] = target: Vasopressin V2 receptor (Homo sapiens, UniProt P30518)
# Further: assay procedure not described here.
# Sequence of Vasopressin V2 receptor (P30518 whole entry): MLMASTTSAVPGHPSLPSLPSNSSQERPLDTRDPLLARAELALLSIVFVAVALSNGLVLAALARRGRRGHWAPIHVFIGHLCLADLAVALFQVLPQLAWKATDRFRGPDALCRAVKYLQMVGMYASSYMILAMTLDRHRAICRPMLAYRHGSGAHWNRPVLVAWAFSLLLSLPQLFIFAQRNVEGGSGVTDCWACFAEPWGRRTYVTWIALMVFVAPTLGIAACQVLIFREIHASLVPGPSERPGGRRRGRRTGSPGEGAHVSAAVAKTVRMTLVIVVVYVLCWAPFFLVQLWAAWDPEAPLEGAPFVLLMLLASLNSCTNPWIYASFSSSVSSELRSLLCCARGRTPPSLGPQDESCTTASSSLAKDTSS
# Sequence of 5-hydroxytryptamine receptor 2B (P41595 whole entry): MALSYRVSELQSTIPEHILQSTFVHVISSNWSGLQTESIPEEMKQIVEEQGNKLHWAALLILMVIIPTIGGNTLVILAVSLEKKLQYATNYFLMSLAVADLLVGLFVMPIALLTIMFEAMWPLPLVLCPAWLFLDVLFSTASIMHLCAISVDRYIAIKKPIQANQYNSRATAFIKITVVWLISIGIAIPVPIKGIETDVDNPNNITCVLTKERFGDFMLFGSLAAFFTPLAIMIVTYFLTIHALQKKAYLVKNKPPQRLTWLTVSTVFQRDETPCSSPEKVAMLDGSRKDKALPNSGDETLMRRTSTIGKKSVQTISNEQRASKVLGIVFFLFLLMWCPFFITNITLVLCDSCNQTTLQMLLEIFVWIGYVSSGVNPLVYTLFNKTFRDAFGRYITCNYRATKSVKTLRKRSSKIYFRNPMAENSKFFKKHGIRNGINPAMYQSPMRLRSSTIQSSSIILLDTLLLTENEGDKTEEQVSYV
# Sequence of Histamine H2 receptor (P25021 whole entry): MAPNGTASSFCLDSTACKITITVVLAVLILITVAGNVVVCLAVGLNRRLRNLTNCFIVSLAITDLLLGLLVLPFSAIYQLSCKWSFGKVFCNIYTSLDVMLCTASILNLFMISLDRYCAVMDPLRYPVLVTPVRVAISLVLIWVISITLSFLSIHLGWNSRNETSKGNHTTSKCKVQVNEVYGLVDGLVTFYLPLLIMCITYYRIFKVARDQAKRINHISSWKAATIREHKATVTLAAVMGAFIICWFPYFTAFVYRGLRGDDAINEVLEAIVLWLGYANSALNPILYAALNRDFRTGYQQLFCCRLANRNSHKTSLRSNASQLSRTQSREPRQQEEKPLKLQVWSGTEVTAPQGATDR
# Sequence of cGMP-inhibited 3',5'-cyclic phosphodiesterase 3A (Q14432 whole entry): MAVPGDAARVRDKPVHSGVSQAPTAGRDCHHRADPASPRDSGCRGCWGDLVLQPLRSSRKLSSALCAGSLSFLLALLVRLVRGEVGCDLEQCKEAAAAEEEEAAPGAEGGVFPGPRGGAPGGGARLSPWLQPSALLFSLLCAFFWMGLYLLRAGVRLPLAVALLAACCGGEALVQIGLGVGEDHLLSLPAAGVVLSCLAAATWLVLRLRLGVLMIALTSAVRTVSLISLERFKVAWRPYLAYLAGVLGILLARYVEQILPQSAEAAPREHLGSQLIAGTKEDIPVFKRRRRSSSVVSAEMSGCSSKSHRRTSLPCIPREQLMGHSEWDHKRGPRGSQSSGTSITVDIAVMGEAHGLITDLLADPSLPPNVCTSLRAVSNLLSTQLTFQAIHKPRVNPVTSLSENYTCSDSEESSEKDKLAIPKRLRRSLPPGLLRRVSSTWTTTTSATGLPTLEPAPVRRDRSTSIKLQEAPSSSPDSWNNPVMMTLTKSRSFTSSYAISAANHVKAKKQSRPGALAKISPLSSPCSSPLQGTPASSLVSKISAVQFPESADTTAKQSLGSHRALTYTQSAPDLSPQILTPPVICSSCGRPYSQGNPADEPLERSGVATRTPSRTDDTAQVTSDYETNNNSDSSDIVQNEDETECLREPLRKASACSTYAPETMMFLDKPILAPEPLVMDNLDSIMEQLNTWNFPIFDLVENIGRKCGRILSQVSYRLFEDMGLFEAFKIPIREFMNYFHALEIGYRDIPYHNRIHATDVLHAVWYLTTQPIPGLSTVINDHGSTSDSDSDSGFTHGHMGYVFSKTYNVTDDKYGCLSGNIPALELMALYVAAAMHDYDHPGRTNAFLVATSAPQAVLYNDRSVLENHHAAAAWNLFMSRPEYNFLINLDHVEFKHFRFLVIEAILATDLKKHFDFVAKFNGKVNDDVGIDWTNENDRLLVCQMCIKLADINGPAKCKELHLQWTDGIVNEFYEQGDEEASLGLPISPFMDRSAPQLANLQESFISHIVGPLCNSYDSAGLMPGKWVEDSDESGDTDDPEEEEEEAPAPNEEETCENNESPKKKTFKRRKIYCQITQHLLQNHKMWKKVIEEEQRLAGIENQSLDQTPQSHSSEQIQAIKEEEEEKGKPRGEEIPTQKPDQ
# Sequence of Beta-1 adrenergic receptor (P08588 whole entry): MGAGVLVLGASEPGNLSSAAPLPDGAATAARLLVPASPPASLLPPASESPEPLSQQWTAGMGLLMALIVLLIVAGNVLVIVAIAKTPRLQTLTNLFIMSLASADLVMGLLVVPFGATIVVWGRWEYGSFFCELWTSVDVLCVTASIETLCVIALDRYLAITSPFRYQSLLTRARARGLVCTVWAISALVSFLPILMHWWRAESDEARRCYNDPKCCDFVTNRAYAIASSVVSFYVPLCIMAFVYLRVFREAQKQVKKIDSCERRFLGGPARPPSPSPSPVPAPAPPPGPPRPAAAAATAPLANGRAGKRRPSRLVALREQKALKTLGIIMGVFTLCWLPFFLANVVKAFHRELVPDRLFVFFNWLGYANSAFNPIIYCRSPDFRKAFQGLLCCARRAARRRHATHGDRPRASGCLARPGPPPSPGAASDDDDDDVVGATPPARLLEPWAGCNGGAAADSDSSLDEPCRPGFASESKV
Structure (SMILES),AC50 [1],AC50 [2],AC50 [3],AC50 [4],AC50 [5],AC50 [6],AC50 [7],AC50 [8],AC50 [9],AC50 [10],AC50 [11]
Cc1nnc2n1-c1ccc(Cl)cc1C(c1ccccc1Cl)=NC2 [TRIAZOLAM],> 10 µM,> 30 µM,> 10 µM,> 30 µM,> 30 µM,> 10 µM,14 µM,> 30 µM,> 30 µM,> 10 µM,> 30 µM
COc1ccc(CCNCC(O)COc2cccc(C)c2)cc1OC (configuration not stated) [BEVANTOLOL],> 30 µM,> 30 µM,> 10 µM,> 30 µM,> 10 µM,0.026 µM,> 30 µM,> 10 µM,> 30 µM,> 10 µM,> 10 µM
